According to the supplement of paper PMC13380429:

Tests used:
Conditions in all cases: 72 h
[1] = test system: Caco-2; assay: cell viability relative to DMSO; higher = less toxic
[2] = test system: Calu-3; assay: as above
[3] = test system: HepG2; assay: as above
[4] = test system: U2OS; assay: as above
[5] = test system: Vero E6; assay: as above
[6] = test system: Caco-2; assay: relative viability EC50 (midpoint between 100% and the lowest measured viability); higher = less toxic
[7] = test system: Calu-3; assay: as above
[8] = test system: HepG2; assay: as above
[9] = test system: U2OS; assay: as above
[10] = test system: Vero E6; assay: as above
[11] = test system: Caco-2; assay: drug sensitivity score (DSS) for viability; higher = more toxic; extreme values may be limits of the assay
[12] = test system: Calu-3; assay: as above
[13] = test system: HepG2; assay: as above
[14] = test system: U2OS; assay: as above
[15] = test system: Vero E6; assay: as above

SMILES: CCO[C@@H](Cc1ccc(OCCn2c(C)ccc2-c2ccc(SC)cc2)cc1)C(=O)O [saroglitazar]
- cell viability ([1]; 1 nM): 92%
- cell viability ([1]; 10 nM): 92.8%
- cell viability ([1]; 100 nM): 122%
- cell viability ([1]; 1000 nM): 93.7%
- cell viability ([1]; 10000 nM): 100%
- cell viability ([2]; 1 nM): 93.3%
- cell viability ([2]; 10 nM): 80.3%
- cell viability ([2]; 100 nM): 97.6%
- cell viability ([2]; 1000 nM): 89.9%
- cell viability ([2]; 10000 nM): 105%
- cell viability ([3]; 1 nM): 97.3%
- cell viability ([3]; 10 nM): 95.5%
- cell viability ([3]; 100 nM): 88.4%
- cell viability ([3]; 1000 nM): 97.1%
- cell viability ([3]; 10000 nM): 104%
- cell viability ([4]; 1 nM): 102%
- cell viability ([4]; 10 nM): 89.1%
- cell viability ([4]; 100 nM): 101%
- cell viability ([4]; 1000 nM): 97.5%
- cell viability ([4]; 10000 nM): 93.9%
- cell viability ([5]; 1 nM): 99.5%
- cell viability ([5]; 10 nM): 96.3%
- cell viability ([5]; 100 nM): 88.1%
- cell viability ([5]; 1000 nM): 87.8%
- cell viability ([5]; 10000 nM): 95.2%
- relative viability EC50 [6]: > 10 µM
- relative viability EC50 [7]: > 10 µM
- relative viability EC50 [8]: > 10 µM
- relative viability EC50 [9]: > 10 µM
- relative viability EC50 [10]: > 10 µM
- drug sensitivity score [11]: 0
- drug sensitivity score [12]: 0
- drug sensitivity score [13]: 0
- drug sensitivity score [14]: 0
- drug sensitivity score [15]: 1.2

SMILES: COc1cc(Br)c(Nc2nc(-c3c(C)nc4ncccn34)cs2)c(Br)c1 [PTC-209]
- cell viability ([1]; 1 nM): 95.4%
- cell viability ([1]; 10 nM): 91.5%
- cell viability ([1]; 100 nM): 96.1%
- cell viability ([1]; 1000 nM): 77.8%
- cell viability ([1]; 10000 nM): 16.7%
- cell viability ([2]; 1 nM): 109%
- cell viability ([2]; 10 nM): 102%
- cell viability ([2]; 100 nM): 98.9%
- cell viability ([2]; 1000 nM): 83.2%
- cell viability ([2]; 10000 nM): 41.2%
- cell viability ([3]; 1 nM): 97.1%
- cell viability ([3]; 10 nM): 97.5%
- cell viability ([3]; 100 nM): 100%
- cell viability ([3]; 1000 nM): 71.3%
- cell viability ([3]; 10000 nM): 16.1%
- cell viability ([4]; 1 nM): 97.7%
- cell viability ([4]; 10 nM): 101%
- cell viability ([4]; 100 nM): 98.8%
- cell viability ([4]; 1000 nM): 55.3%
- cell viability ([4]; 10000 nM): 11.8%
- cell viability ([5]; 1 nM): 99.3%
- cell viability ([5]; 10 nM): 99.3%
- cell viability ([5]; 100 nM): 95.7%
- cell viability ([5]; 1000 nM): 43.1%
- cell viability ([5]; 10000 nM): 15.7%
- relative viability EC50 [6]: 1.5 µM
- relative viability EC50 [7]: 1.44 µM
- relative viability EC50 [8]: 1.3 µM
- relative viability EC50 [9]: 0.986 µM
- relative viability EC50 [10]: 0.633 µM
- drug sensitivity score [11]: 8
- drug sensitivity score [12]: 5.7
- drug sensitivity score [13]: 8.7
- drug sensitivity score [14]: 10.4
- drug sensitivity score [15]: 11.7

SMILES: CN1CCN(C(=O)c2nc3ccc(Cl)cc3[nH]2)CC1
- cell viability ([1]; 1 nM): 106%
- cell viability ([1]; 10 nM): 100%
- cell viability ([1]; 100 nM): 96.5%
- cell viability ([1]; 1000 nM): 92.2%
- cell viability ([1]; 10000 nM): 90.9%
- cell viability ([2]; 1 nM): 100%
- cell viability ([2]; 10 nM): 99.9%
- cell viability ([2]; 100 nM): 87.9%
- cell viability ([2]; 1000 nM): 96.9%
- cell viability ([2]; 10000 nM): 101%
- cell viability ([3]; 1 nM): 104%
- cell viability ([3]; 10 nM): 107%
- cell viability ([3]; 100 nM): 96.7%
- cell viability ([3]; 1000 nM): 106%
- cell viability ([3]; 10000 nM): 93.8%
- cell viability ([4]; 1 nM): 105%
- cell viability ([4]; 10 nM): 97.1%
- cell viability ([4]; 100 nM): 103%
- cell viability ([4]; 1000 nM): 98.1%
- cell viability ([4]; 10000 nM): 101%
- cell viability ([5]; 1 nM): 97.9%
- cell viability ([5]; 10 nM): 106%
- cell viability ([5]; 100 nM): 97.8%
- cell viability ([5]; 1000 nM): 102%
- cell viability ([5]; 10000 nM): 104%
- relative viability EC50 [6]: > 10 µM
- relative viability EC50 [7]: > 10 µM
- relative viability EC50 [8]: > 10 µM
- relative viability EC50 [9]: > 10 µM
- relative viability EC50 [10]: > 10 µM
- drug sensitivity score [11]: 0
- drug sensitivity score [12]: 0
- drug sensitivity score [13]: 0
- drug sensitivity score [14]: 0
- drug sensitivity score [15]: 0

SMILES: CCN(CC)CCN[C@@H](C(=O)OCCC(C)C)c1ccccc1 [camylofine-chlorhydrate]
- cell viability ([1]; 1 nM): 84.4%
- cell viability ([1]; 10 nM): 82%
- cell viability ([1]; 100 nM): 85.5%
- cell viability ([1]; 1000 nM): 100%
- cell viability ([1]; 10000 nM): 85.6%
- cell viability ([2]; 1 nM): 96.3%
- cell viability ([2]; 10 nM): 107%
- cell viability ([2]; 100 nM): 102%
- cell viability ([2]; 1000 nM): 97.5%
- cell viability ([2]; 10000 nM): 99%
- cell viability ([3]; 1 nM): 106%
- cell viability ([3]; 10 nM): 105%
- cell viability ([3]; 100 nM): 98.6%
- cell viability ([3]; 1000 nM): 97.3%
- cell viability ([3]; 10000 nM): 108%
- cell viability ([4]; 1 nM): 90.7%
- cell viability ([4]; 10 nM): 99.7%
- cell viability ([4]; 100 nM): 94.8%
- cell viability ([4]; 1000 nM): 101%
- cell viability ([4]; 10000 nM): 108%
- cell viability ([5]; 1 nM): 94.9%
- cell viability ([5]; 10 nM): 93%
- cell viability ([5]; 100 nM): 95.7%
- cell viability ([5]; 1000 nM): 91.1%
- cell viability ([5]; 10000 nM): 103%
- relative viability EC50 [6]: > 10 µM
- relative viability EC50 [7]: > 10 µM
- relative viability EC50 [8]: > 10 µM
- relative viability EC50 [9]: > 10 µM
- relative viability EC50 [10]: > 10 µM
- drug sensitivity score [11]: 1
- drug sensitivity score [12]: 0
- drug sensitivity score [13]: 0
- drug sensitivity score [14]: 0
- drug sensitivity score [15]: 0

SMILES: c1ccc(CCCN2CCN(CCOC(c3ccccc3)c3ccccc3)CC2)cc1
- cell viability ([1]; 1 nM): 104%
- cell viability ([1]; 10 nM): 95%
- cell viability ([1]; 100 nM): 94.4%
- cell viability ([1]; 1000 nM): 92.9%
- cell viability ([1]; 10000 nM): 85.6%
- cell viability ([2]; 1 nM): 102%
- cell viability ([2]; 10 nM): 98.4%
- cell viability ([2]; 100 nM): 103%
- cell viability ([2]; 1000 nM): 95.9%
- cell viability ([2]; 10000 nM): 99.7%
- cell viability ([3]; 1 nM): 92.4%
- cell viability ([3]; 10 nM): 91.6%
- cell viability ([3]; 100 nM): 99.2%
- cell viability ([3]; 1000 nM): 99.7%
- cell viability ([3]; 10000 nM): 85.1%
- cell viability ([4]; 1 nM): 101%
- cell viability ([4]; 10 nM): 97%
- cell viability ([4]; 100 nM): 100%
- cell viability ([4]; 1000 nM): 98.1%
- cell viability ([4]; 10000 nM): 97.8%
- cell viability ([5]; 1 nM): 114%
- cell viability ([5]; 10 nM): 104%
- cell viability ([5]; 100 nM): 106%
- cell viability ([5]; 1000 nM): 96.5%
- cell viability ([5]; 10000 nM): 95.9%
- relative viability EC50 [6]: > 10 µM
- relative viability EC50 [7]: > 10 µM
- relative viability EC50 [8]: > 10 µM
- relative viability EC50 [9]: > 10 µM
- relative viability EC50 [10]: > 10 µM
- drug sensitivity score [11]: 0.3
- drug sensitivity score [12]: 0
- drug sensitivity score [13]: 0.2
- drug sensitivity score [14]: 0
- drug sensitivity score [15]: 0

SMILES: CCOC(=O)c1c[nH]cn1 [C-751]
- cell viability ([1]; 1 nM): 88.6%
- cell viability ([1]; 10 nM): 91.6%
- cell viability ([1]; 100 nM): 96.4%
- cell viability ([1]; 1000 nM): 98.3%
- cell viability ([1]; 10000 nM): 90.4%
- cell viability ([2]; 1 nM): 100%
- cell viability ([2]; 10 nM): 97.2%
- cell viability ([2]; 100 nM): 90.3%
- cell viability ([2]; 1000 nM): 92.9%
- cell viability ([2]; 10000 nM): 104%
- cell viability ([3]; 1 nM): 104%
- cell viability ([3]; 10 nM): 99.6%
- cell viability ([3]; 100 nM): 95.6%
- cell viability ([3]; 1000 nM): 93.1%
- cell viability ([3]; 10000 nM): 109%
- cell viability ([4]; 1 nM): 100%
- cell viability ([4]; 10 nM): 100%
- cell viability ([4]; 100 nM): 94.6%
- cell viability ([4]; 1000 nM): 102%
- cell viability ([4]; 10000 nM): 93%
- cell viability ([5]; 1 nM): 99.5%
- cell viability ([5]; 10 nM): 96.7%
- cell viability ([5]; 100 nM): 99.6%
- cell viability ([5]; 1000 nM): 92.6%
- cell viability ([5]; 10000 nM): 100%
- relative viability EC50 [6]: > 10 µM
- relative viability EC50 [7]: > 10 µM
- relative viability EC50 [8]: > 10 µM
- relative viability EC50 [9]: > 10 µM
- relative viability EC50 [10]: > 10 µM
- drug sensitivity score [11]: 0
- drug sensitivity score [12]: 0
- drug sensitivity score [13]: 0
- drug sensitivity score [14]: 0
- drug sensitivity score [15]: 0

SMILES: COc1ccccc1N1CCN(CCCCN2C(=O)c3ccccc3C2=O)CC1 [NAN-190]
- cell viability ([1]; 1 nM): 99.7%
- cell viability ([1]; 10 nM): 85.8%
- cell viability ([1]; 100 nM): 99.2%
- cell viability ([1]; 1000 nM): 86.6%
- cell viability ([1]; 10000 nM): 94.8%
- cell viability ([2]; 1 nM): 95.5%
- cell viability ([2]; 10 nM): 94.3%
- cell viability ([2]; 100 nM): 107%
- cell viability ([2]; 1000 nM): 101%
- cell viability ([2]; 10000 nM): 102%
- cell viability ([3]; 1 nM): 91.6%
- cell viability ([3]; 10 nM): 108%
- cell viability ([3]; 100 nM): 94%
- cell viability ([3]; 1000 nM): 109%
- cell viability ([3]; 10000 nM): 103%
- cell viability ([4]; 1 nM): 103%
- cell viability ([4]; 10 nM): 100%
- cell viability ([4]; 100 nM): 101%
- cell viability ([4]; 1000 nM): 94.7%
- cell viability ([4]; 10000 nM): 101%
- cell viability ([5]; 1 nM): 99.4%
- cell viability ([5]; 10 nM): 94.5%
- cell viability ([5]; 100 nM): 91.5%
- cell viability ([5]; 1000 nM): 94.3%
- cell viability ([5]; 10000 nM): 103%
- relative viability EC50 [6]: > 10 µM
- relative viability EC50 [7]: > 10 µM
- relative viability EC50 [8]: > 10 µM
- relative viability EC50 [9]: > 10 µM
- relative viability EC50 [10]: > 10 µM
- drug sensitivity score [11]: 0
- drug sensitivity score [12]: 0
- drug sensitivity score [13]: 0
- drug sensitivity score [14]: 0
- drug sensitivity score [15]: 0
